What was measured:
Type in all cases: cell-based, human
MCF-7 cells [1] = assay: Mixed exposure of plant essential oil compounds and forskolin (FK) on E2-induced breast cancer cell growth (FIG. 3); details: mixed exposure with forskolin (FK), 10 nM estrogen
Procedure: (§1) MCF-7 cells were cultured in growth medium supplemented with 10% fetal bovine serum (FBS). At 85% confluence, cells were sub-cultured in 6 well petri-dishes medium supplemented with 5% FBS serum stripped medium, phenol red free for 24 hours prior to the treatment of different concentrations of the test chemicals. Cells were either counted (5 days after treatment) or used to determine cell proliferation (24 hr after treatment) using ^3H-thymidine incorporation. To count the cell, cells were trypsinized, and collected using Eppendorf microcentrifuge. The cell pellets were resuspended in 1% trypan blue and three aliquots (10 ul each) of the viable cell suspension was counted using a haemocytometer assay. Each sample was then counted three times to obtain an average count. For thymidine incoroporation, 24 hr after cell treated with test mixture, cells were incubated with 1 uCi ^3H-thymidine. After 2 hr, the medium was withdrawn and the cells were washed with thymidine-free medium and 10% TCA prior to radioactive count. Plant essential oil compounds were tested in the presence of 10 nM estrogen (=2.7 ng estrogen/ml) using three wells per test concentration. This experiment was repeated two times. A control sample received solvent only at <0.1% ethanol. The data supports the involvement of cellular signaling proteins, particularly cAMP/PKA cascade in the E2-induced cell proliferation in human breast cancer cells as judged by the antiestrogenic activity of FK. However, different methods are required to evaluate antiestrogenic activity.

MCF-7 cells [2] = assay: Plant essential oil compounds against E2-induced cell growth, viable cell count (trypan blue, haemocytometer); details: 10 nM estrogen, 5 days of treatment; for protection against E2-induced abnormal cell growth: 1 ug/ml
Procedure: Various concentrations of plant essential oil compounds were tested against E2-induced cell growth to determine the lowest concentrations that antagonize the E2-induced cell growth. MCF-7 cells were cultured in growth medium supplemented with 10% fetal bovine serum (FBS). At 85% confluence, cells were sub-cultured in 6 well petri-dishes and supplemented with 5% FBS serum stripped medium, phenol red free for 24 hours prior to the treatment of different concentrations of the test chemicals. After 5 days of treatment cells were trypsinized and collected using an Eppendorf microcentrifuge. The cell pellets were resuspended in 1% trypan blue. Three aliquots (10 ul each) of the viable cell suspension was counted using a haemocytometer assay. Each sample was then counted three times and to obtain an average count. The compounds were tested in the presence of 10 nM estrogen (=2.7 ng estrogen/ml). Two wells per test concentration were used. This experiment was repeated two times. A control sample-received solvent only at <0.1% ethanol.

MCF-7 cells [3] = assay: Mixed exposure of okadaic acid (OA) and plant essential oil compounds, 3H-thymidine incorporation (FIG. 5); details: 10 ug/ml plant essential oil compound + 1 nM okadaic acid, 24 hr, with or without 10 nM E2
Procedure: MCF-7 cells were cultured in growth medium supplemented with 10% fetal bovine serum (FBS). At 85% confluence, cells were sub-cultured in 6 well petri-dishes medium supplemented with 5% FBS serum stripped medium, phenol red free for 24 hours prior to the treatment of 10 ug/ml of each plant essential oil compound and 1 nM okadiac acid. After 24 hr treatment, cells were used to determine cell proliferation using ^3H-thymidine incorporation. Two hrs after cell incubation with 1 uCi ^3H-thymidine, the medium was withdrawn and the cells were washed with thymidine-free medium and 10% TCA prior to radioactive count. These test chemicals were tested in the presence of 10 nM estrogen (=2.7 ng estrogen/ml). Three wells per test concentration were used. This experiment was repeated two times. A control sample received solvent only at <0.1% ethanol.

MCF-7 cells [4] = assay: Effect of geldanamycin (GM) on antiestrogenic activity of plant essential oil compounds against E2-induced cell growth (FIG. 4); details: mixed exposure with geldanamycin (GM), 10 nM estrogen
Procedure: as §1, with “The data supports the involvement of cellular signaling proteins, particularly cAMP/PKA cascade in the E2-induced cell proliferation in human breast cancer cells as judged by the antiestrogenic activity of FK. However, different methods are required to evaluate antiestrogenic activity.” left out

Row | SMILES | synergism by FK of the antiestrogenic activity of the plant essential oil compound (MCF-7 cells [1]) | protection against the E2-induced abnormal cell growth (MCF-7 cells [2]; 10 μg/ml) | protection against E2-induced abnormal cell growth (MCF-7 cells [2]) [%] | synergism by OA of the antiestrogenic activity of the plant essential oil compound (MCF-7 cells [3]) | synergism by GM of the antiestrogenic activity against E2 induced cell growth (MCF-7 cells [4]) | protection against the E2-induced abnormal cell growth (MCF-7 cells [2]; concentration not given) | protection against the E2-induced cell proliferation (MCF-7 cells [2]; 5 ug/ml) [%]
1 | O=C/C=C/c1ccccc1 [Cinnamic aldehyde] | synergizes | approximately 75% |  |  |  |  | 
2 | C=CCc1ccc(O)c(OC)c1 [eugenol] | synergizes |  | 35 | regardless of the absence or presence of E2 | synergizes |  | 
3 | CC=Cc1ccc(O)c(OC)c1 [isoeugenol] | not |  | 25 |  |  | approximately 75% | 
4 | Cc1ccc(C(C)C)c(O)c1 [thymol] | not |  |  | only in the absence of E2 |  |  | 40

From patent US7008649B2, “Cancer treatment composition and method using natural plant essential oils with signal transduction modulators” (Ecosmart Techonlogies, Inc., priority 1998, dated 2006)
